Measurements taken from patent US7585864B2, “Farnesyl protein transferase inhibitors and their use to treat cancer” (Schering Corporation, priority 2004, dated 2009).

What was measured:
[1] = test system: Human tumor cells; test: Soft Agar Assay (anchorage-independent growth); type: cell-based; settings: colony outgrowth in 0.3% agarose, 10-16 days, MTT staining
Experimental: Anchorage-independent growth is a characteristic of tumorigenic cell lines. Human tumor cells can be suspended in growth medium containing 0.3% agarose and an indicated concentration of a farnesyl transferase inhibitor. The solution can be overlayed onto growth medium solidified with 0.6% agarose containing the same concentration of farnesyl transferase inhibitor as the top layer. After the top layer is solidified, plates can be incubated for 10-16 days at 37° C. under 5% CO2 to allow colony outgrowth. After incubation, the colonies can be stained by overlaying the agar with a solution of MTT (3-[4,5-dimethyl-thiazol-2-yl]-2,5-diphenyltetrazolium bromide, Thiazolyl blue) (1 mg/mL in PBS). Colonies can be counted and the IC50's can be determined.

[2] = molecular target: purified human farnesyl protein transferase (Homo sapiens, UniProt P49354+P49356); test: FPT IC50 Assay; type: biochemical; settings: transfer of [3H] farnesyl to biotinylated H-ras peptide (biotin-CVLS), 37° C., 60 minutes
Experimental: FPT activity was determined by measuring the transfer of [^3H] farnesyl from [^3H] farnesyl pyrophosphate to a biotinylated peptide derived from the C-terminus of H-ras (biotin-CVLS). The reaction mixture contains: 50 mM Tris pH7.7, 5 mM MgCl2, 5 μM Zn^++, 5 mM DTT, 0.1% Triton-X, 0.05 μM peptide, 0.03 nM purified human farnesyl protein transferase, 0.180 μM [^3H] farnesyl pyrophosphate, plus the indicated concentration of tricyclic compound or vehicle control in a total volume of 100 μl. The reaction was incubated in a Vortemp shaking incubator at 37° C., 45 RPM for 60 minutes and stopped with 150 μl of 0.25 M EDTA containing 0.5% BSA and 1.3 mg/ml Streptavidin SPA beads. Radioactivity was measured in a Wallach 1450 Microbeta liquid scintillation counter. Percent inhibition was calculated relative to the vehicle control.

IC50 [1] [nM] | IC50 [2] [nM] | SMILES
< 5 | 0.12 | Cc1cn(C[C@@H]2CCCN(C(=O)[C@@H]3CN([C@H]4c5ccc(Cl)cc5OCc5cccnc54)CCN3C(=O)OC(C)(C)C)C2)cn1 [Example 4]
 | 0.16 | Cc1cn(C[C@@H]2CCCN(C(=O)[C@H]3CN([C@@H]4c5ccc(Cl)cc5OCc5cccnc54)CCN3C(=O)OC3CCCCC3)C2)cn1 [Example 11]
28 | 3 | Cc1cn(CCCN(Cc2ccccc2)C(=O)[C@H]2CN([C@H]3c4ccc(Cl)cc4OCc4cccnc43)CCN2C(=O)OC(C)(C)C)cn1 [Example 1]
